What was measured:
Assay type in all cases: cell-based
Alternaria solani = test: in vitro 96-well micro-titration test on Alternaria solani spores; details: for EC95 (%): A. solani, Table 22, ingredient alone in water
[1] = tested on: Septoria tritici (Zymoseptoria tritici); test: in vitro 96-well micro-titration test on Septoria tritici / Zymoseptoria tritici; details: for EC95 (%): Z. tritici, Table 23, ingredient alone in water
Plasmopara viticola = test: in vitro antifungal action of single ingredients on Plasmopara viticola
Text: In Vitro Results Showing the Syngergistic Action of Yucca Juice with the Other Compounds of the Composition According to the Invention on A. solani, Z. tritici, and Plasmopara viticola,
The following tables show in vitro the synergistic antifungal action between yucca juice and the other compounds of the composition of the invention on various pathogens. The concentrations given are as a mass %. The solutions tested as aqueous solutions.
Mo denotes sodium molybdate, Bo denotes boron ethanolamine.

[2] = Concentration 0.05% mass of the stated aqueous solution

Compound	EC95 (%) (Alternaria solani)	inhibition of A. solani, ingredient alone in water (Alternaria solani; [2]) [%]	inhibition of A. solani, ingredient alone in water (Alternaria solani; Concentration 0.50%) [%]	inhibition of A. solani, ingredient alone in water (Alternaria solani; Concentration 1.00%) [%]	inhibition of A. solani, ingredient alone in water (Alternaria solani; Concentration 2.00%) [%]	inhibition of A. solani, ingredient alone in water (Alternaria solani; Concentration 3.00%) [%]	inhibition of A. solani, ingredient alone in water (Alternaria solani; Concentration 6.00%) [%]	inhibition of A. solani, ingredient alone in water (Alternaria solani; Concentration 10.00%) [%]	inhibition of Z. tritici, ingredient alone in water ([1]; Concentration 0.05%) [%]	inhibition of Z. tritici, ingredient alone in water ([1]; Concentration 0.50%) [%]	inhibition of Z. tritici, ingredient alone in water ([1]; Concentration 1.00%) [%]	inhibition of Z. tritici, ingredient alone in water ([1]; Concentration 2.00%) [%]	inhibition of Z. tritici, ingredient alone in water ([1]; Concentration 3.00%) [%]	inhibition of Z. tritici, ingredient alone in water ([1]; Concentration 6.00%) [%]	inhibition of Z. tritici, ingredient alone in water ([1]; Concentration 10.00%) [%]	EC95 (%) [1] [%]	in vitro activity against Plasmopara viticola, ingredient alone in water (Plasmopara viticola; Concentration 0.05%) [%]	in vitro activity against Plasmopara viticola, ingredient alone in water (Plasmopara viticola; Concentration 0.50%) [%]	in vitro activity against Plasmopara viticola, ingredient alone in water (Plasmopara viticola; Concentration 1.00%) [%]	in vitro activity against Plasmopara viticola, ingredient alone in water (Plasmopara viticola; Concentration 2.00%) [%]	further results
O=S(=O)([O-])[O-].[Cu+2] [Cu 1.5%]	>10	−2.8	−1.4	−1.9	−1.8	−4.9	−1.8	−2.9	11.9	17.3	22.1	23.6	20.9	24.1	28.2	>10					
O=S(=O)([O-])[O-].[Fe+2] [Fe 4%]	2.3	−4.7	−4.3	−0.4	49.6	100.0	100.0	100.0	9.8	37.1	38.8	54.9	100.0	100.0	100.0	2.86					efficacy against Z. tritici (glume blotch) in vitro ([1]; dose of 0.5%): ~37%
[Cl-].[K+] [KCl 0.24%]	>10	1.2	−3.6	−3.9	−8.9	−1.3	−1.2	−2.9	4.7	2.2	1.4	0.1	0.3	7.9	3.8	>10	10.83	51.35	69.10	75.81	in vitro activity against Plasmopara viticola, ingredient alone in water (Plasmopara viticola; Concentration 3.00%): 83.20%; in vitro activity against Plasmopara viticola, ingredient alone in water (Plasmopara viticola; Concentration 6.00%): 94.91%; in vitro activity against Plasmopara viticola, ingredient alone in water (Plasmopara viticola; Concentration 10.00%): 97.43%
O=S(=O)([O-])[O-].[Mg+2] [Mg 0.5%]	>10	−1.2	−8.0	−2.2	−1.8	−1.3	−2.5	−2.4	0.7	0.9	2.3	−2.9	−0.1	11.3		>10	13.88	43.93	53.33	69.80	in vitro activity against Plasmopara viticola, ingredient alone in water (Plasmopara viticola; Concentration 3.00%): 76.51%; in vitro activity against Plasmopara viticola, ingredient alone in water (Plasmopara viticola; Concentration 6.00%): 91.75%; in vitro activity against Plasmopara viticola, ingredient alone in water (Plasmopara viticola; Concentration 10.00%): 95.94%
